Experimental data from patent EP3797781A1, “USE OF EC-7072 AND SYNERGIC COMPOSITIONS THEREOF IN TREATMENT OF CHRONIC LYMPHOCYTIC LEUKEMIA” (priority 2019, dated 2021).

Experiments:
[1] = system: primary fibroblasts from healthy donors; experiment: Cell death of primary fibroblasts by PI staining; assay type: cell-based, human; settings: 200 nM, 24 hours; n = 4
Experimental: Effectiveness of EC-7072 against different B-cell malignancies was assessed by; • (i) incubating primary fibroblasts from healthy donors (n = 4) and HK-2 cells from healthy human adult kidney (n = 3) following treatment with MTA (200 nM) or EC-7072 (200 nM) for 24 hours. Cell death was evaluated by PI staining to obtain the percentages corresponding to the [PI^+] subset (Figure 5A) and the mean percentage of [PI^+] cells (Figure 5B); • (ii) treating MEC-1, GRANTA-519, Z-138, JVM-2, CA-46, Ramos, Raji and U266 cell lines (n = 3) following treatment with EC-7072 (500 nM) followed by incubation for 24 hours. Cell viability was assessed by DiOC6(3)/PI staining and normalized to control (DMSO) condition to obtain mean percentage of viable [DiOC6(3)^+] cells (Figure 5C).

T cells (CD3^+CD56^-) = experiment: T cell numbers, viability and apoptosis in PBMCs (flow cytometry, DiOC6(3)/PI staining); assay type: cell-based, human
Experimental: To evaluate absolute cell numbers, an equal volume of PKH26 reference microbeads (Sigma-Aldrich) was added to each sample after staining for immune subset identification. Microbeads (5x10^3) were acquired by flow cytometry and absolute numbers of each immune population within the sample were calculated. Normalized percentage values were calculated considering the control (DMSO)-treated cells as 100%.
(§1) Cell viability and apoptosis were evaluated by double-staining with the mitochondrial inner transmembrane potential (ΔΨm)-sensitive dye DiOC6(3) (3,3'-dihexyloxacarbocyanine iodide; Sigma-Aldrich) and the exclusion dye propidium iodide (PI; Immunostep), allowing identification of apoptotic [DiOC6(3)^low PI^-] and dead [PI^+] cells as per Proc. Natl. Acad. Sci. U.S.A. (2014) 111(8):3020-3025 and Methods Mol. Biol. (2016) 1419:1-16. Briefly, PBMCs were resuspended in culture medium containing 20 nM DiOC6(3) and incubated for 30 minutes at 37 °C. Then, PI (1 µg/mL) was added and cells were further incubated for 10 minutes at room temperature (RT). Cells were analyzed by flow cytometry considering DiOC6(3)^+PI^- cells as viable. In some experiments, apoptosis was evaluated by staining with Annexin V/PI. Thus, PBMCs were incubated in Annexin V binding buffer containing 5 µg/mL Annexin V-FITC (Biolegend) for 15 minutes at RT and PI (1 µg/mL) was subsequently added. Data were normalized to the untreated control as a percentage. Only samples with at least 60% of viable cells (DiOC6(3)^+; Annexin V^-) in the control (DMSO) condition were employed in this study.
The effect of EC-7072 toward healthy immune subsets, T lymphocytes and natural killer (NK) cells, which are chronically exposed to leukemia cells in the peripheral blood of patients with CLL was assessed by: • (i) incubating PBMCs isolated from patients with CLL (n = 10) following treatment with increasing concentrations of EC-7072 (0 - 400 nM) for 24 hours. Numbers of T cells (CD3^+CD56^-) (Figure 2A) and NK cells (CD3^-CD56^+) (Figure 2B) were evaluated by flow cytometry and normalized to their respective control (DMSO) condition for each individual patient to obtain percentage of relative number of T cells and NK cells, respectively; • (ii) incubating PBMCs isolated from patients with CLL (n = 6 - 10) following treatment with increasing concentrations of EC-7072 (0 - 400 nM) for 24 hours. Viability of immune subsets (leukemia cells, T cells and NK cells) was determined by cytofluorometric assessment of DiOC6(3)/PI staining and normalized to their respective control (DMSO) condition for each individual patient to obtain percentage of viable [DiOC6(3)^+] cells (Figures 2C and 2D); • (iii) incubating PBMCs isolated from patients with CLL (n = 11) following treatment with DMSO or EC-7072 (200 nM) for 24 hours. Numbers of CD4^+ cells (Figure 2E) and CD8^+ T cells (Figure 2F) were evaluated by flow cytometry and normalized to their respective control (DMSO) condition for each individual experiment; • (iv) incubating PBMCs isolated from healthy donors (n = 15) following treatment with EC-7072 (200 nM) for 24 hours. […]

[2] = system: MEC-1, GRANTA-519, Z-138, JVM-2, CA-46, Ramos, Raji and U266 cell lines; experiment: Viability of B-cell malignancy cell lines by DiOC6(3)/PI staining; assay type: cell-based; settings: 500 nM, 24 hours; n = 3; Figure 5C
Experimental: as §1, with “Thus, PBMCs were incubated in Annexin V binding buffer containing 5 µg/mL Annexin V-FITC (Biolegend) for 15 minutes at RT and PI (1 µg/mL) was subsequently added. Data were normalized to the untreated control as a percentage. Only samples with at least 60% of viable cells (DiOC6(3)^+; Annexin V^-) in the control (DMSO) condition were employed in this study.” left out
Effectiveness of EC-7072 against different B-cell malignancies was assessed by; • (i) incubating primary fibroblasts from healthy donors (n = 4) and HK-2 cells from healthy human adult kidney (n = 3) following treatment with MTA (200 nM) or EC-7072 (200 nM) for 24 hours. […] Cell viability was assessed by DiOC6(3)/PI staining and normalized to control (DMSO) condition to obtain mean percentage of viable [DiOC6(3)^+] cells (Figure 5C).

CO[C@@H]([C@@H]1Cc2cc3cc(O[C@H]4C[C@@H](O[C@H]5C[C@@H](O)[C@H](O)[C@@H](C)O5)[C@H](O)[C@@H](C)O4)c(C)c(O)c3c(O)c2C(=O)[C@H]1O[C@H]1C[C@@H](O[C@H]2C[C@@H](O[C@H]3C[C@](C)(O)[C@H](O)[C@@H](C)O3)[C@@H](O)[C@@H](C)O2)[C@H](O)[C@@H](C)O1)[C@@H](O)C(C)=O [EC-7072, mithramycin SK]
viability of primary human fibroblasts (PI^+ cells) [1]: did not markedly affect the viability | T cell numbers and viability (T cells (CD3^+CD56^-); 0 - 400 nM, 24 hours, PBMCs from patients with CLL): negligible effects | ratio of apoptosis to cell death in T cells (T cells (CD3^+CD56^-); 200 nM, 24 hours, PBMCs from healthy donors (n = 4), Figure 2Q): comparable to that induced by EC-7073 | viability of T cells, comparison of mithralogs (T cells (CD3^+CD56^-); 200 nM, 24 hours, PBMCs from healthy donors (n = 10), Figure 2N): not exhibit toxicity | cell numbers and viability of T lymphocytes (T cells (CD3^+CD56^-); 200 nM, 24 hours, PBMCs from healthy donors (n = 15), compared with PBMCs from patients with CLL): comparable effects | toxicity against T cells compared with fludarabine (T cells (CD3^+CD56^-); EC-7072 200 nM 24 hours vs fludarabine 10 µM 24 hours, PBMCs from patients with CLL (n = 6 - 8), Figure 4F): significantly less toxic than fludarabine | surviving cell fraction of tumor cell lines derived from B-cell hematologic malignancies [2]: significantly reduced the surviving cell fraction
